{"source": "patent US6410480B1", "about": "“Herbicidally active 3-hydroxy-4-aryl-5-oxopyrazoline derivatives” (Syngenta Crop Protection, Inc., priority 1998, dated 2002)", "tested_on": "all of the weeds tested", "test": "Experimental comparison with the prior art: herbicidal action, pre- and post-emergence, overall statement", "type": "in vivo", "details": "500 g of active substance/ha, against all of the weeds tested", "description": "The following compounds were examined for their herbicidal activity: Monocotyledonous and dicotyledonous weeds are sown in standard soil in plastic pots. Immediately after sowing, the test substances are applied (500 l of water/ha) as an aqueous suspension (prepared using a 25% wettable powder (Example F3, b)) or as an emulsion (prepared using a 25% emulsion concentrate (Example F1, c)). The application rate is 500 g of active substance/ha. The test plants are subsequently grown under optimum conditions in a greenhouse. 3 weeks after the application, evaluation is carried out using a nine-level scale of ratings (1=complete damage, 9=no effect). Ratings of 1 to 4 (in particular 1 to 3) mean a good to very good herbicidal action. Test plants: Alopecurus (Alo), Avena (Ave), Lolium (Lot), Setaria (Set), Panicum (Pan), Sorghum (Sor), Digitaria (Dig), Echinocloa (Ech) and Brachiaria (Bra). Monocotyledonous and dicotyledonous weeds are grown in standard soil in plastic pots under greenhouse conditions. The test substances are applied at the 3- to 6-leaf stage of the test plants. The test substances are applied (500 l of water/ha) as an aqueous suspension (prepared using a 25% wettable powder (Example F3, b)) or as an emulsion (prepared using a 25% emulsion concentrate (Example F1, c)) at an application rate of 500 g of active substance/ha. […]", "data": [{"smiles": "Cc1cc(C)c(C2C(=O)N3CCOCCN3C2=O)c(C)c1", "note": "[Compound No. 1.01]", "values": [{"measurement": "herbicidal action compared with compound A of the prior art", "value": "considerably better herbicidal action"}]}]}
